Assay results from US5234935A, “N-alkylated 1,4-dihydropyridine-dicarboxylic acid esters” (Bayer Aktiengesellschaft, priority 1990, dated 1993).

Assays:
[1] = tested on: SH rats; assay: Blood pressure in SH rats after p.o. administration (tail artery, Riva Rocci); type: in vivo, rat
Method: (§1) The blood pressure neutrality is determined in the following models, which are typical for dihydropyridines: in SH rats after p.o. administration by measurement in the tail artery (Riva Rocci method) and in anaesthetized Wistar rats after i.v. administration (via a catheter inserted in the carotid artery). Blood-neutral compounds are designated as those which reduce the blood pressure by at most 20% of the starting value in both test models at the dose indicated. The difference between the therapeutic dose and the blood pressure action occurring is at least a factor of 10, as a rule a factor of ≥30, in particular ≥100.

[2] = tested on: anaesthetized Wistar rats; assay: Blood pressure in anaesthetized Wistar rats after i.v. administration (carotid catheter); type: in vivo, rat
Method: as §1

[3] = tested on: leukocyte adhesion; assay: Leukocyte adhesion in hamster cheek pouch model; type: in vivo; conditions: 0.1 mg/kg i.v.; for Leukocyte adhesion, Ischaemic, control = 100%: ischaemic (10 min circulation stop), small arterioles; for Leukocyte adhesion, Non-ischaemic, control = 100%: small venules
Method: The microcirculation can be directly observed in the hamster cheek pouch model. Measured quantities are leukocyte adhesion and also vessel diameter and erythrocyte velocity. The adhesion was quantified under ischaemic and non-ischaemic experimental conditions. Under non-ischaemic conditions, the adhesion is quantified in the area of small venules, under ischaemic conditions (10 min circulation stop) the adhesion is quantified in small arterioles. The results of the control experiments are given relative to 100%. 0.1 mg/kg i.v. is in each case chosen as the test dose, the results are decreases in % of the control.

[4] = tested on: erythrocytes; assay: Calcium permeability of erythrocytes (45Ca) after ATPase blockade by Na ortho-vanadate; type: cell-based; conditions: Erythrocyte; inhibition of calcium influx (45Ca); Na ortho-vanadate 0.75 mM; read-out: ED50 of the inhibition
Method: Test a) measures the calcium permeability (^45 Ca) by blockade of the ATPases by Na ortho-vanadate. As a result, calcium can accumulate in the erythrocytes. A consequence is a reduced flexibility. ED50 values (mol/l) for the inhibition of calcium influx are given for test a).
After blockade of the membrane-immobilized ATPases by Na ortho-vanadate (0.75 mM), the calcium permeability is measured (^45 Ca method). Accumulation of calcium reduces the flexibility of the erythrocytes.

[5] = tested on: erythrocytes; assay: Filtration of calcium-laden erythrocytes through 5 μm pores; type: cell-based; conditions: Erythrocyte, 0.5 h; filtration through 5 μm sieve pores; sheared in normal buffer 30 min; read-out: ED50 improvement in the flexibility compared to damage to control
Method: Test c) detects the filterability of calcium-laden erythrocytes through 5 μm pores (ED50, mol/l). In this test, the membrane flexibility plays a role under small force gradients.
Filtration of erythrocytes through 5 μm sieve pores is an established method for the determination of the deformability of erythrocytes. The cells are sheared in normal buffer for 30 min so that the calcium concentration increases intracellularly and the flexibility is reduced.

[6] = tested on: erythrocytes; assay: Antihaemolytic action, calcium-laden erythrocytes under high shearing stress; type: cell-based; conditions: Erythrocyte; reduction of haemoglobin release from calcium-laden erythrocytes; read-out: ED50 of the antihaemolytic action
Text: Test b) detects the antihaemolytic action of the substances (ED50, mol/l). In this test, calcium-laden erythrocytes are forced through small pores under high shearing stresses, so that haemoglobin is released as a result of their haemolysis and measured. The reduction in haemoglobin release is the measured quantity.
Normal erythrocytes become haemolytic under high shearing stresses. The haemolysis of calcium-laden cells is particularly pronounced. This measure of mechanical stability is used for substance characterization. The measured quantity is the concentration of free haemoglobin in the medium.

COC(=O)C1=C(C)N(C)C(C)=C(C(=O)OC(C)C(C)C)C1c1ccc(C(F)(F)F)cc1 (centres unmarked) [Example 9, methyl 1,2-dimethylpropyl 1,2,6-trimethyl-4-(4-trifluoromethylphenyl)-1,4-dihydro-pyridine-3,5-dicarboxylate]
Dose at which a blood pressure reduction occurs, p.o. [1]: > 30 mg/kg
Dose at which a blood pressure reduction occurs, i.v. [2]: > 10 mg/kg
Leukocyte adhesion, Ischaemic, control = 100% [3]: 36%
Leukocyte adhesion, Non-ischaemic, control = 100% [3]: 70%

COC(=O)C1=C(C)N(C)C(C)=C(C(=O)OC)C1c1ccc(C(F)(F)F)cc1 [Example 3, Dimethyl 1,2,6-trimethyl-4-(4-trifluoromethylphenyl)-1,4-dihydro-pyridine-3,5-dicarboxylate]
IC50 [4]: 5 µM
Dose at which a blood pressure reduction occurs, p.o. [1]: > 30 mg/kg
Dose at which a blood pressure reduction occurs, i.v. [2]: > 10 mg/kg
Leukocyte adhesion, Ischaemic, control = 100% [3]: 31%
Leukocyte adhesion, Non-ischaemic, control = 100% [3]: 63%
EC50 [5]: 5 µM

COC(=O)C1=C(C)N(C)C(C)=C(C(=O)OC)C1c1ccc(Cl)c(C(F)(F)F)c1 [Example 26, dimethyl 1,2,6-trimethyl-4-(4-chloro-3-trifluoromethylphenyl)-1,4-dihydro-pyridine-3,5-dicarboxylate]
EC50 [6]: 0.03 µM
EC50 [5]: 5 µM

COC(=O)C1=C(C)N(C)C(C)=C(C(=O)OC)C1c1ccc([N+](=O)[O-])c(O)c1 [Example 28, dimethyl 1,2,6-trimethyl-4-(3-hydroxy-4-nitrophenyl)-1,4-dihydro-pyridine-3,5-dicarboxylate]
EC50 [5]: 5 µM

COC(=O)C1=C(C)N(C)C(C)=C(C(=O)OC)C1c1cccc(F)c1 [Example 2, Dimethyl 4-(3-fluorophenyl)-1,2,6-trimethyl-1,4-dihydropyridine-3,5-dicarboxylate]
EC50 [6]: 0.1 µM

COC(=O)C1=C(C)N(C)C(C)=C(C(=O)OC)C1c1ccc(Br)cc1 [Example 13, dimethyl 1,2,6-trimethyl-4-(4-bromophenyl)-1,4-dihydropyridine-3,5-dicarboxylate]
IC50 [4]: 5 µM
EC50 [6]: 0.5 µM

CCCCOC(=O)C1=C(C)N(C)C(C)=C(C(=O)OCCCC)C1c1ccc([N+](=O)[O-])cc1 [Example 6, dibutyl 1,2,6-trimethyl-4-(4-nitrophenyl)-1,4-dihydropyridine-3,5-dicarboxylate]
Dose at which a blood pressure reduction occurs, p.o. [1]: > 30 mg/kg
Dose at which a blood pressure reduction occurs, i.v. [2]: > 10 mg/kg
Leukocyte adhesion, Ischaemic, control = 100% [3]: 56%
Leukocyte adhesion, Non-ischaemic, control = 100% [3]: 50%

COC(=O)C1=C(C)N(C2CC2)C(C)=C(C(=O)OC)C1c1ccc(C(F)(F)F)cc1 [Example 18, dimethyl 1-cyclopropyl-2,6-dimethyl-4-(4-trifluoromethylphenyl)-1,4-dihydro-pyridine-3,5-dicarboxylate]
Dose at which a blood pressure reduction occurs, p.o. [1]: > 30 mg/kg
Dose at which a blood pressure reduction occurs, i.v. [2]: > 10 mg/kg
Leukocyte adhesion, Ischaemic, control = 100% [3]: 32%
Leukocyte adhesion, Non-ischaemic, control = 100% [3]: 54%

CCCOC(=O)C1=C(C)N(C)C(C)=C(C(=O)OCCC)C1c1ccc(C#N)cc1 [Example 15, dipropyl 1,2,6-trimethyl-4-(4-cyanophenyl)-1,4-dihydropyridine-3,5-dicarboxylate]
EC50 [6]: 5 µM

COC(=O)C1=C(C)N(C)C(C)=C(C(=O)OC)C1c1ccc(C)c([N+](=O)[O-])c1 [Example 21, dimethyl 1,2,6-trimethyl-4-(4-methyl-3-nitrophenyl)-1,4-dihydro-pyridine-3,5-dicarboxylate]
IC50 [4]: 5 µM
EC50 [6]: 0.5 µM

CCOC(=O)C1=C(C)N(C2CC2)C(C)=C(C(=O)OCC)C1c1ccc(C(F)(F)F)cc1 [Example 19, diethyl 1-cyclopropyl-2,6-dimethyl-4-(4-trifluoromethylphenyl)-1,4-dihydro-pyridine-3,5-dicarboxylate]
Dose at which a blood pressure reduction occurs, p.o. [1]: > 100 mg/kg
Dose at which a blood pressure reduction occurs, i.v. [2]: > 10 mg/kg
Leukocyte adhesion, Ischaemic, control = 100% [3]: 34%
Leukocyte adhesion, Non-ischaemic, control = 100% [3]: 61%

COC(=O)C1=C(C)N(C)C(C)=C(C(=O)OC)C1c1ccc(C)c(C(F)(F)F)c1 [Example 27, dimethyl 1,2,6-trimethyl-4-(4-methyl-3-trifluoromethylphenyl)-1,4-dihydro-pyridine-3,5-dicarboxylate]
IC50 [4]: 1 µM
EC50 [6]: 0.05 µM

CCOC(=O)C1=C(C)N(C)C(C)=C(C(=O)OCC)C1c1ccc(C)c([N+](=O)[O-])c1 [Example 22, diethyl 1,2,6-trimethyl-4-(4-methyl-3-nitrophenyl)-1,4-dihydro-pyridine-3,5-dicarboxylate]
EC50 [6]: 0.5 µM

CCOC(=O)C1=C(C)N(C)C(C)=C(C(=O)OCC)C1c1ccc(F)cc1 [Example 1, Diethyl 1,2,6-trimethyl-4-(4-fluorophenyl)-1,4-dihydropyridine-3,5-dicarboxylate]
EC50 [5]: 5 µM
